Tests used:
sGC α1/β1 heterodimer = molecular target: T1, sGC α1/β1 heterodimer (Homo sapiens, UniProt Q02108+Q02153); experiment: Cell-Based sGC Functional Assay (CASA Assay); details: CHO-K1/sGC cells; for EC50: intracellular cGMP by HTRF, 1 hr at 37° C., IP from 4P fit, presence or absence of 1 μM DETA-NO not given; for Emax: cGMP as percentage of maximum cGMP production of Compound A (=100% activation), read-out: % ACT (percent activation)
T1 construct: expressed in transfected cells
T1 sequence (Q02108 1-690): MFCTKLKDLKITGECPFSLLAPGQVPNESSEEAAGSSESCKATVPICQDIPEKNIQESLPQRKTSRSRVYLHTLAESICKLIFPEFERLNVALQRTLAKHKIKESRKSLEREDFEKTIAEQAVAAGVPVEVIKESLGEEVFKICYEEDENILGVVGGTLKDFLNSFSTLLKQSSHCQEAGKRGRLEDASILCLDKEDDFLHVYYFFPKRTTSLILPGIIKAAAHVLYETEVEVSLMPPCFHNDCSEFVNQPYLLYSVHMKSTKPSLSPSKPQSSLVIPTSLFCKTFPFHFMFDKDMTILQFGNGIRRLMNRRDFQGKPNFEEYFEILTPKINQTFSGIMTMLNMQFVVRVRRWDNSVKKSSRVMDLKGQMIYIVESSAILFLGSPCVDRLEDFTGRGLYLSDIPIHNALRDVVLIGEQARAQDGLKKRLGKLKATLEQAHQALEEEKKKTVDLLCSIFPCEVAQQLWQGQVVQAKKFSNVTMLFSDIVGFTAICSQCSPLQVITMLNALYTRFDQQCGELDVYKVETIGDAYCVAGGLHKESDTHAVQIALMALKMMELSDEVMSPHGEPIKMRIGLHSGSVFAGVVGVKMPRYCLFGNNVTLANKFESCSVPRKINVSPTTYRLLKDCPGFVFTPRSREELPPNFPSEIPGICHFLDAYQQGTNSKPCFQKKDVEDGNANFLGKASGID
T1 sequence (Q02153 1-619): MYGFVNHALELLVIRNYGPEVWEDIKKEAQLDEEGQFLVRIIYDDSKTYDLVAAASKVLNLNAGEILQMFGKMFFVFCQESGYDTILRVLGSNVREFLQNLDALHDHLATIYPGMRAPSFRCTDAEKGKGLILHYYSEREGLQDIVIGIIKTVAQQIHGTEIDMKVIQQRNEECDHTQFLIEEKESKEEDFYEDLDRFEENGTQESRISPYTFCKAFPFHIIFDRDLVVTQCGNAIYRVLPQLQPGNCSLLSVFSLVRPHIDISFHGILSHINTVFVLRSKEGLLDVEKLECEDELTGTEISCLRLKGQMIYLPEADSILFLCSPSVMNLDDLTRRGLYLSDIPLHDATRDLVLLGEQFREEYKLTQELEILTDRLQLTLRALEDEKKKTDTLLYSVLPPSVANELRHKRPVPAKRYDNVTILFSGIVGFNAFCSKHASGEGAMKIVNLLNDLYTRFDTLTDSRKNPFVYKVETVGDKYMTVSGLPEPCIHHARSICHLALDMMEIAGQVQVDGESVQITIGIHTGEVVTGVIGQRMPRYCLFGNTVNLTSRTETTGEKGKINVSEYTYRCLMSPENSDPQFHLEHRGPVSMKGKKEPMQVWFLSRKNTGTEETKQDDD
In short: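 CHO-K1 cells stably expressing human sGC α1/β1 were incubated with compound (2.5% DMSO) for 1 hr at 37 °C with 0.5 mM IBMX, with or without 1 μM DETA-NO. Intracellular cGMP was measured by HTRF and expressed as % of the maximal cGMP produced by a reference sGC heme-dependent activator. IP and maximum fold induction came from a 4-parameter fit.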

[1] = tested on: Spontaneously hypertensive rats (SHR); experiment: Acute Efficacy in Spontaneously Hypertensive Rats (SHR); assay type: in vivo, rat; details: single oral gavage
Source text: Acute Efficacy in Spontaneously Hypertensive Rats (SHR)
Spontaneously hypertensive rats (SHR, male, Charles River) were implanted with DSI TA 11PA-C40 telemetry device (Data Sciences, Inc., St. Paul, Minn.) under isoflurane or ketamine/metomidine anesthesia. The telemetry unit catheter was inserted into the descending aorta via the femoral artery and the telemetry device was implanted subcutaneously in the left flank area. Animals were allowed to recover from surgery for 14 days before the start of any studies. Blood pressure, heart rate, and activity signals from conscious, freely moving rats were recorded continuously for 30 seconds every 10 min. On the day prior to administration of compound, a single oral dose of vehicle (10% transcutol/20% Cremophor/70% water) was administered to all animals to establish baseline control data. The blood pressure lowering efficacy of compound (PO) or vehicle was evaluated following a single oral gavage. Data were collected as hourly averages, and changes in blood pressure were calculated by subtracting control baseline data on an hourly basis. Animals were maintained on normal diet with a 12 h light-dark cycle.
Maximum peak decreases of systolic blood pressure (SBP) in SHR at a particular P.O. dose (mpk milligrams per kilogram) for the following Example compounds are provided. Category A=SBP in SHRs<25 mmHg; Category B=SBP in SHRs 25-40 mmHg; Category C=SBP in SHRs>40 mmHg.

| SMILES | EC50 (sGC α1/β1 heterodimer) | Emax (sGC α1/β1 heterodimer) | Maximum peak decrease of systolic blood pressure (SBP) in SHR, Category ([1]; Dose 0.3 mpk P.O.) | Maximum peak decrease of systolic blood pressure (SBP) in SHR, Category ([1]; Dose 1 mpk P.O.) | Maximum peak decrease of systolic blood pressure (SBP) in SHR, Category ([1]; Dose 3 mpk P.O.) |
| --- | --- | --- | --- | --- | --- |
| [2H]C([2H])([2H])n1nnc2c(-c3nc(N)c4c(n3)NC(=O)C4(C)c3ccc(Cl)cc3F)nc(CCC(F)(F)C(F)(F)F)nc21 (single isomer, unassigned) [Example 73, 4-Amino-5-(4-chloro-2-fluorophenyl)-5-methyl-2-(5-(3,3,4,4,4-pentafluorobutyl-3-trideuteriomethyl)-3H-[1,2,3]triazolo[4,5-d]pyrimidin-7-yl)-5H-pyrrolo[2,3-d]pyrimidin-6(7H)-one] | 429 nM | 97% | – | – | A (Category A=SBP in SHRs<25 mmHg) |
| Cn1ncc2c(-c3nc(N)c4c(n3)NC(=O)C4(C)c3ccc(F)cc3)nc(CCC(F)(F)C(F)(F)F)nc21 (single isomer, unassigned) [Example 9, 4-Amino-5-(4-fluorophenyl)-5-methyl-2-(1-methyl-6-(3,3,4,4,4-pentafluorobutyl)-1H-pyrazolo[3,4-d]pyrimidin-4-yl)-5H-pyrrolo[2,3-d]pyrimidin-6(7H)-one] | 46 nM | 110% | – | C (Category C=SBP in SHRs>40 mmHg) | – |
| CCn1ncc2c(-c3nc(N)c4c(n3)NC(=O)C4(C)c3ccccc3)nc(CCC(F)(F)C(F)(F)F)nc21 (single isomer, unassigned) [Example 7, 4-Amino-2-(1-ethyl-6-(3,3,4,4,4-pentafluorobutyl)-1H-pyrazolo[3,4-d]pyrimidin-4-yl)-5-methyl-5-phenyl-5H-pyrrolo[2,3-d]pyrimidin-6(7H)-one] | 85 nM | 110% | – | – | B (Category B=SBP in SHRs 25-40 mmHg) |
| Cn1ccc2c(-c3nc(N)c4c(n3)NC(=O)C4(C)c3ccc(F)cc3)nc(CCC(F)(F)C(F)(F)F)nc21 (single isomer, unassigned) [Example 61, 4-Amino-5-(4-fluorophenyl)-5,7′-dimethyl-2′-(3,3,4,4,4-pentafluorobutyl)-5H,7′H-[2,4′-bipyrrolo[2,3-d]pyrimidin]-6(7H)-one] | 61 nM | 91% | – | A (Category A=SBP in SHRs<25 mmHg) | – |
| Cn1ncc2c(-c3nc(N)c4c(n3)NC(=O)C4(C)c3ccccc3)nc(CCC(F)(F)C(F)(F)F)nc21 (single isomer, unassigned) [Example 1, 4-Amino-5-methyl-2-(1-methyl-6-(3,3,4,4,4-pentafluorobutyl)-1H-pyrazolo[3,4-d]pyrimidin-4-yl)-5-phenyl-5H-pyrrolo[2,3-d]pyrimidin-6(7H)-one] | 40 nM | 101% | – | C (Category C=SBP in SHRs>40 mmHg) | – |
| Cn1ccc2c(-c3nc(N)c4c(n3)NC(=O)C4(C)c3ccccc3)nc(CCC(F)(F)C(F)(F)F)nc21 (single isomer, unassigned) [Example 62, 4-Amino-5,7′-dimethyl-2′-(3,3,4,4,4-pentafluorobutyl)-5-phenyl-5H,7′H-[2,4′-bipyrrolo[2,3-d]pyrimidin]-6(7H)-one] | 19 nM | 92% | – | A (Category A=SBP in SHRs<25 mmHg) | – |

The remaining compounds from weak to strong by EC50 (sGC α1/β1 heterodimer), led by results:

| EC50 (sGC α1/β1 heterodimer) | Emax (sGC α1/β1 heterodimer) | SMILES | Maximum peak decrease of systolic blood pressure (SBP) in SHR, Category ([1]; Dose 0.3 mpk P.O.) | Maximum peak decrease of systolic blood pressure (SBP) in SHR, Category ([1]; Dose 1 mpk P.O.) | Maximum peak decrease of systolic blood pressure (SBP) in SHR, Category ([1]; Dose 3 mpk P.O.) |
| --- | --- | --- | --- | --- | --- |
| 1140 nM | 98% | [2H]C([2H])([2H])n1nnc2c(-c3nc(N)c4c(n3)NC(=O)C4(c3ccc(F)cc3)C3CC3)nc(CCC(F)(F)C(F)(F)F)nc21 (single isomer, unassigned) [Example 69, 4-Amino-5-cyclopropyl-5-(4-fluorophenyl)-2-(5-(3,3,4,4,4-pentafluorobutyl-3-trideuteriomethyl)-3H-[1,2,3]triazolo[4,5-d]pyrimidin-7-yl)-5H-pyrrolo[2,3-d]pyrimidin-6(7H)-one] | – | – | B (Category B=SBP in SHRs 25-40 mmHg) |
| 1070 nM | 114% | [2H]C([2H])([2H])n1nnc2c(-c3nc(N)c4c(n3)NC(=O)C4(C)c3ccc(F)cc3)nc(CCC(F)(F)C(F)(F)F)nc21 (single isomer, unassigned) [Example 67, 4-Amino-5-(4-fluorophenyl)-5-methyl-2-(5-(3,3,4,4,4-pentafluorobutyl-3-trideuteriomethyl)-3H-[1,2,3]triazolo[4,5-d]pyrimidin-7-yl)-5H-pyrrolo[2,3-d]pyrimidin-6(7H)-one] | – | A (Category A=SBP in SHRs<25 mmHg) | – |
| 190 nM | 132% | Cn1ncc2c(-c3nc(N)c4c(n3)NC(=O)C4(C)C(=O)NC3CC3)nc(CCC(F)(F)C(F)(F)F)nc21 (single isomer, unassigned) [Example 31, 4-Amino-N-cyclopropyl-5-methyl-2-(1-methyl-6-(3,3,4,4,4-pentafluorobutyl)-1H-pyrazolo[3,4-d]pyrimidin-4-yl)-6-oxo-6,7-dihydro-5H-pyrrolo[2,3-d]pyrimidine-5-carboxamide] | B (Category B=SBP in SHRs 25-40 mmHg) | – | – |
| 53 nM | 112% | [2H]C([2H])([2H])n1ncc2c(-c3nc(N)c4c(n3)NC(=O)C4(C(=O)NC3CC3)C3CC3)nc(CCC(F)(F)C(F)(F)F)nc21 (single isomer, unassigned) [Example 28, 4-Amino-N,5-dicyclopropyl-2-(6-(3,3,4,4,4-pentafluorobutyl)-1-trideuteriomethyl-1H-pyrazolo[3,4-d]pyrimidin-4-yl)-6-oxo-6,7-dihydro-5H-pyrrolo[2,3-d]pyrimidine-5-carboxamide] | – | C (Category C=SBP in SHRs>40 mmHg) | – |
| 52 nM | 131% | [2H]C([2H])([2H])n1ncc2c(-c3nc(N)c4c(n3)NC(=O)C4(C)C(=O)NC3CC3)nc(CCC(F)(F)C(F)(F)F)nc21 (single isomer, unassigned) [Example 32, 4-Amino-N-cyclopropyl-5-methyl-2-(6-(3,3,4,4,4-pentafluorobutyl)-1-trideuteriomethyl-1H-pyrazolo[3,4-d]pyrimidin-4-yl)-6-oxo-6,7-dihydro-5H-pyrrolo[2,3-d]pyrimidine-5-carboxamide] | – | A (Category A=SBP in SHRs<25 mmHg) | – |
| 32 nM | 97% | [2H]C([2H])([2H])n1ncc2c(-c3nc(N)c4c(n3)NC(=O)C4(C)c3ccc(F)cc3)nc(CCC(F)(F)C(F)(F)F)nc21 (single isomer, unassigned) [Example 2, 4-Amino-5-(4-fluorophenyl)-5-methyl-2-(6-(3,3,4,4,4-pentafluorobutyl)-1-trideuteriomethyl-1H-pyrazolo[3,4-d]pyrimidin-4-yl)-5H-pyrrolo[2,3-d]pyrimidin-6(7H)-one] | – | C (Category C=SBP in SHRs>40 mmHg) | – |

From patent US9783552B2, “Soluble guanylate cyclase activators” (MERCK SHARP & DOHME CORP., priority 2013, dated 2017)
